The subject of test [1] is NF-κB gene targets in cDCs. The experiment in a line: RNA-seq and gene set enrichment in cDCs. Type of test: cell-based, mice. The procedure:
FIG. 14B is a line graph of the enrichment of NF-κB target genes in DMSO or apilimod-treated, 3 hours, cDCs after 6 days of culture.
FIG. 14C is a line graph of the enrichment of NF-κB target genes in DMSO or apilimod-treated, 8 hours, cDCs after 6 days of culture.
FIG. 14H is a scatter plot of differentially expressed genes in apilimod versus DMSO-treated, 8 hours, cDCs after 6 days of culture.
FIG. 21C is a line graph of MSigDB Hallmark “TNF_SIGNALING_VIA_NFκB” in apilimod vs. DMSO-treated, 3 hours, cDCs after 6 days of culture.
FIG. 21D is a line graph of MSigDB Hallmark “TNF_SIGNALING_VIA_NFκB” in apilimod vs. DMSO-treated, 8 hours, cDCs after 6 days of culture.
The Eukaryote Total RNA Nano kit (Agilent Technologies; catalog #: 5067-1511) was used to check the quality of RNAs on an Agilent bioanalyzer. A total of 800 ng RNA was then used for library preparation with the KAPA RNA Hyper+RiboErase HMR kit (Roche Diagnostics; Catalog #: 08098140702), following the instructions from the user manual. Briefly, the ribosomal RNA was removed by enzymatic digestion, and then the RNA was fragmented to around 200-300 bp with heat in fragmentation buffer. Synthesis of cDNA was conducted with reverse transcriptase and random primer, and then the second strand was synthesized to generate double-stranded cDNA. Following the repair of the DNA ends, NEB adapter was ligated, and the DNA are amplified with the KAPA HiFi HotStart mix and NEB dual barcode. Quality of the library was checked using the bioanalyzer with the Agilent DNA 1000 Kit (Agilent Technologies; catalog #: 5067-1504), and the sequencing was performed using NovaSeq 6000. The RNA-sequencing data was analyzed with packages limma and edgeR See, e.g., Ritchie, M. E. et al., Nucleic Acids Res. 2015; 43(7):47; Phipson, B. et al., Ann. Appl. Stat. 2016; 10(2):946-963; Robinson, M. D. et al., Bioinformatics 2010; 26(1):139-40. […] The analyzed hallmark pathways were collected from the Molecular Signatures Database See, e.g., Subramanian, A. et al., Proc. Natl. Acad. Sci. USA 2005; 102(43):15545-15550; Liberzon, A. et al., Cell Syst. […]

Test [2] has as its system tumor infiltrating DCs in B16F10 tumors. The test is described as follows: Tumor infiltrating DCs in B16F10 tumors of PIKfyve KO or WT mice. The test is classed as in vivo. The following applies: for percentage of cDC1s: 30 mg/kg daily. The procedure: FIG. 15E is a box and whisker plot of the XCR1 median fluorescent intensity by % cDC1 subset in B16F10 tumor model treated with vehicle or apilimod, 30 mg/kg daily.
FIG. 15F is a series of three box and whisker plot of the XCR1 median fluorescent intensity by all DCs, cDC1 or cDC2 subset in PIKfyve KO mice or WT mice treated with vehicle or apilimod, 30 mg/kg daily.
FIG. 23F is a box and whisker plot of the % cDC2 of all DC cells in PIKfyve KO mice or WT mice treated with vehicle or apilimod, 30 mg/kg daily.
FIG. 23G is a series of three box and whisker plots of the SIRP1α median fluorescent intensity by all DC, cDC1 or cDC2 subset in PIKfyve KO mice or WT mice treated with vehicle or apilimod, 30 mg/kg daily.

The subject of test [3] is cDCs co-cultured with OT-I and OT-II cells. The experiment in a line: cDC antigen presentation and OT-I/OT-II co-culture. Type of test: cell-based, mice. Here is the method: FIG. 13T is a box and whisker plot of the percentage of IFNγ^+ OT-I cells after 72 hours of co-culture with DMSO or apilimod pre-treated cDCs with or without sOVA, 10 μg/ml.
FIG. 13V is a box and whisker plot of the percentage of IFNγ^+ OT-II cells after 72 hours of co-culture with DMSO or apilimod pre-treated cDCs with or without sOVA, 10 μg/ml.
FIG. 19G is a line graph (Left) and box and whisker plot (Right) of relative median fluorescent intensity of surface H-2kb-SIINFEKL in DMSO or apilimod-treated cDCs with or without 12 hours of pOVA, 100 ng/ml, treatment.
FIG. 19H is a scatter plot (Left) and box and whisker plot (Right) of relative median fluorescent intensity of percent H2kb-SIINFEKL^+ cells in DMSO or apilimod-treated cDCs with or without 12 hours of pOVA, 100 ng/ml, treatment.
FIG. 20D is a scatter plot (Left) and box and whisker plot (Right) of percentage of IFNγ^+ OT-I cells after 48 hours of co-culture with DMSO or apilimod pre-treated cDCs with or without pOVA, 100 ng/ml.
FIG. 20E is a scatter plot (Left) and box and whisker plot (Right) of percentage of granzyme B^+ OT-I cells after 48 hours of co-culture with DMSO or apilimod pre-treated cDCs with or without pOVA, 100 ng/ml.
FIG. 20H is a box and whisker plot of the percent of Ki67^+ OT-I cells after 72 hours of co-culture with DMSO or apilimod pre-treated cDCs with or without sOVA, 10 μg/ml.
FIG. 20I is a box and whisker plot of the percent of Ki67^+ OT-II cells after 72 hours of co-culture with DMSO or apilimod pre-treated cDCs with or without sOVA, 10 μg/ml.

Consider `Cc1cccc(/C=N/Nc2cc(N3CCOCC3)nc(OCCc3ccccn3)n2)c1` [apilimod, N-[(E)-(3-methylphenyl)methylideneamino]-6-morpholin-4-yl-2-(2-pyridin-2-ylethoxy)pyrimidin-4-amine], for which, in test [1] (3 and 8 hours, vs DMSO), the “enrichment of TNF_SIGNALING_VIA_NFκB gene set” value is listed as “positive enrichment”. Also, the Sqstm1 expression entry in test [1] (8 hours, vs DMSO) is recorded as “most significantly upregulated gene”. The “enrichment of direct NF-κB gene targets” value in test [1] (early time points) was “positively enriched”. Also, the figures for the “percentage of cDC1s” value in test [2] (KO mice) and in test [2] (WT mice) were “no additional increase” and “increased”, respectively. Further, the “total surface XCR1 expression, differences between groups compared with cDC1 percentage” value in test [2] (WT and KO mice) was “the same”. Besides, the “percentage of cDC2s or total surface SIRP1α expression” value in test [2] (between any groups) was “no changes”. Moreover, the “total intensity and percentage of cells with H2-kb-SIINFEKL surface expression” value in test [3] (pOVA, vs DMSO) is recorded as “greater”. Moreover, in test [3] (peptide antigen-loaded cDCs, vs DMSO), the “T cell activation (IFNγ+ and granzyme B+ OT-I cells)” value was “increase”. Moreover, the “percentages of Ki67+ and IFNγ+ OT-I cells” value in test [3] (sOVA-loaded cDCs, vs DMSO) is “increases”. Moreover, the “percentages of Ki67+ and IFNγ+ OT-II cells” value in test [3] (sOVA-loaded cDCs, vs control) is given as “higher percentages”.

These data come from US20250144107A1, “USE OF A PIKFYVE INHIBITOR IN COMBINATION WITH IMMUNOTHERAPY” (The Regents of the University of Michigan, priority 2023, published 2025).
